Reference: patent publication US20230203055A1, “FUSED RING COMPOUND AND APPLICATION THEREOF IN MEDICINE” (Betta Pharmaceuticals Co., LTD, priority 2020, published 2023)
pIC50: −log10 of the molar value. Like-named read-outs stand apart in the source and are kept apart here.

Legend:
MIA PaCa-2 cells = test: Detection of cell proliferation inhibition, MIA PaCa-2 (Cell-titer Glo, 96 h); type: cell-based; conditions: for IC50: read-out: IC50 (nM) MIA PaCa-2; for pIC50: read-out: IC50 MIA PaCa-2
Experimental: MIA PaCa-2 cells were plated in a 96-well ultra-low adsorption plate at 600 cells and 160 µL/well. After overnight incubation, compound solutions with gradient concentrations were prepared, and 40 µL of DMSO solutions of the compounds to be tested were added to each well of cells respectively. Compound final concentrations were 10000, 2000, 400, 80, 16, 3.2, 0.64, 0.12, 0.025, 0 nM (all final concentrations of DMSO were 0.25%). Incubate at 37° C., 5% CO2 for 96 h. Add 50 µL of Cell-titer Glo working solution to each well, shake and mix well, incubate at room temperature for 10 min, read the Luminescence luminescence value with a multi-function microplate reader, and convert the luminescence value reading into inhibition percentage: Percent Inhibition = (Max-Reading)/(Max-Min)* 100. • “Max” is the DMSO control; • “Min” is the cell-free control.
Curve fitting was performed with Graphpad Prism software and IC50 values were obtained. See Table 1for IC50 data for the inhibition of MIA PaCa-2 cells by the compounds of the examples.

H358 cells = test: Detection of cell proliferation inhibition, H358 (Cell-titer Glo, 96 h); type: cell-based
Experimental: H358 cells were plated in 96-well ultra-low adsorption plates at 2000 cells and 190 µL/well. After overnight incubation, compound solutions of gradient concentrations were prepared, and 10 µL of the DMSO solution of each concentration of the compound to be tested was added to the cells in each well. Compound final concentrations were 10000, 3333.3, 1111.1, 370.4, 123.5, 41.2, 13.7, 4.6, 1.5, 0 nM (all final concentrations of DMSO were 0.25%). Incubate at 37° C., 5% CO2 for 96 h. Add 50 µL of Cell-titer Glo working solution to each well, incubate at room temperature for 10 min after shaking and mixing, read the Luminescence luminescence value with a multi-function microplate reader, and convert the luminescence value reading into the inhibition percentage:
Percent Inhibition = (Max-Reading)/(Max-Min)* 100. • “Max” is the DMSO control, • “Min” is the cell-free control.
Curve fitting was performed with Graphpad Prism software and IC50 values were obtained. See Table 1 for IC50 data on H358 cell inhibition by example compounds.

[1] = Homo sapiens, NCI-H358, read-out: IC50 (nM) H358

Molecule | IC50 (MIA PaCa-2 cells; Homo sapiens) | IC50 (H358 cells; [1]) | IC50 (MIA PaCa-2 cells) | IC50 (H358 cells; read-out: IC50 (nM) H358) | further results
C=CC(=O)N1CCN(c2nc(=O)n(-c3c(C)ccnc3C(C)C)c3c4c(c(F)cc23)-c2c(ccc3ccccc23)CO4)[C@@H](C)C1 [Example 21, (S)-1-(4-Acryloyl-2-Methylpiperazin-1-yl)-13-Fluoro-4-(2-Isopropyl-4-Methylpyridine-3-yl)-4H-Benzo[5,6] Isochromene[4,3-h]Quinazolin-3(6H)-one] | 1700 nM | 690 nM | – | – | –
C=CC(=O)N1CCN(c2nc(=O)n(-c3c(C)ccnc3C(C)C)c3c4c(c(F)cc23)-c2c(F)cccc2CO4)[C@@H](C)C1 [Example 3] | – | – | < 50 nM | 78 nM | –
[2H]C1([2H])Oc2c(c(Cl)cc3c(N4CCN(C(=O)C=C)C[C@@H]4C)nc(=O)n(-c4c(C)ccnc4C(C)C)c23)-c2c1ccc(F)c2F [Example 35] | < 50 nM | < 50 nM | – | – | –
C=CC(=O)N1CCN(c2nc(=O)n(-c3c(C)ccnc3C(C)C)c3c4c(c(Cl)cc23)-c2c(F)cccc2CO4)C2CC21 (stereo not drawn) [Example 33, 1-(5-Acryloyl-2,5-Diazabicyclo [4.1.0] Heptan-2-yl)-11-Chloro-10-Fluoro-4-(2-Isopropyl-4-Methylpyridin-3-yl)-4H-Isochromeno[4,3-h]Quinazolin-3(6H)-One] | < 50 nM | < 50 nM | – | – | –
C=CC(=O)N1CCN(c2nc(=O)n(-c3c(C)ccnc3C(C)C)c3c(F)c4c(cc23)OCc2cccc(OC)c2-4)[C@@H](C)C1 [Example 12, (S)-8-(Acryloyl-2-Methylpiperazin-1-yl)-12-Fluoro-1-Methoxy-11-(2-Isopropyl-4-Methylpyridin-3-yl)-5H-Isochromene[3,4-g] Quinazolin-10(11H)-One] | – | 3180 nM | – | – | pIC50 (MIA PaCa-2 cells; Homo sapiens): < 5.70
C=CC(=O)N1CCN(c2nc(=O)n(-c3c(C)ccnc3C(C)C)c3c(F)c4c(cc23)OCc2cccc(F)c2-4)[C@@H](C)C1 [Example 4, (S)-8-(Acryloyl-2-Methylpiperazin-1-yl)-1,12-Difluoro-11-(2-Isopropyl-4-Methylpyridin-3-yl)-5H-Isochromene[3,4-g] Quinazolin-10(11H)-One] | – | – | 63 nM | 191 nM | –
C=CC(=O)N1CCN(c2nc(=O)n(-c3c(C)ccnc3C(C)C)c3c4c(c(F)cc23)-c2c(F)cccc2CO4)CC1CC#N (stereo not drawn) [Example 25, 2-(1-Acryloyl-4-(10,11-Difluoro-4-(2-Isopropyl-4-Methylpyridin-3-yl)-3-Oxo-3,6-Dihydro-4H-Isochromene[4,3-h] Quinazolin-1-yl) Piperazin-2-yl)Acetonitrile] | 122 nM | 339 nM | – | – | –
C=CC(=O)N1CCN(c2nc(=O)n(-c3c(C)ccnc3C(C)C)c3c(F)c4c(cc23)OCc2cccc(O)c2-4)[C@@H](C)C1 [Example 10, (S)-8-(Acryloyl-2-Methylpiperazin-1-yl)-12-Fluoro-1-Hydroxy-1l-(2-Isopropyl-4-Methylpyridin-3-yl)-5H-Isochromene[3,4-g]Quinazolin-10(11H)-One] | 3110 nM | 3870 nM | – | – | –
C=C(F)C(=O)N1CCN(c2nc(=O)n(-c3c(C)ccnc3C(C)C)c3c4c(c(Cl)cc23)-c2c(ccc(F)c2F)CO4)[C@@H](C)C1 [Example 34, (S)-11-Chloro-9,10-Difluoro-1-(4-(2-Fluoroacryloyl)-2-Methylpiperazin-1-yl)-4-(2-Isopropyl-4-Methylpyridin-3-yl)-4H-Isochromo[4,3-h] Quinazolin-3(6H)-One] | 908 nM | 780 nM | – | – | –
10-((S)-4-(Acryloyl-2-Methylpiperazin-1-yl)-8-Fluoro-13-(2-Isopropyl-4-Methyl) Pyridin-3-yl)-2,3-Dihydrobenzo [4,5] Oxodipine [3,2-h] Quinolin-12(13H)One [Example 7] | – | – | 70 nM | 137 nM | –
C=CC(=O)N1CCN(c2nc(=O)n(-c3c(C)ccnc3C(C)C)c3c(F)c4c(cc23)OCc2ccc(F)c(F)c2-4)[C@@H](C)C1 [Example 17, (S)-8-(4-Acryloyl-2-Methylpiperazin-1-yl)-1,2,12-Trifluoro-11-(2-Isopropyl-4 -Methylpyridin-3-yl)-5H Isochromene[3,4-g] Quinazolin-10(11H)-One] | 317 nM | 274 nM | – | – | –
C=CC(=O)N1CCN(c2nc(=O)n(-c3c(C)ccnc3C(C)C)c3c4c(c(Cl)cc23)-c2c(ccc(F)c2F)CCO4)[C@@H](C)C1 [Example 30, 10-((S)-4-Acryloyl-2-Methylpiperazin-1-yl)-8-Chloro-6,7-Difluoro-13-(2-Isopropyl-4-Methylpyridin-3-yl)-2,3-Dihydrobenzo[4,5] Oxa[3,2-h]Quinazolin-12(13H)-One] | < 50 nM | < 50 nM | – | – | –
C=CC(=O)N1CCN(c2nc(=O)n(-c3c(C)ccnc3C(C)C)c3c4c(c(Cl)cc23)-c2cnccc2CO4)[C@@H](C)C1 [Example 23, (S)-1-(4-Acryloyl-2-Methylpiperazin-1-yl)-11-Chloro-4-(2-Isopropyl-4-Methylpyridine-3-yl)-4H-Pyridin[3’,4’:4,5]Pyrano[3.2-h]Quinazolin-3(6H)-One] | 292 nM | 532 nM | – | – | –
C=CC(=O)N1CCN(c2nc(=O)n(-c3c(C)ccnc3C(C)C)c3c4c(c(Cl)cc23)-c2c(F)ccc(F)c2CO4)[C@@H](C)C1 [Example 29] | < 50 nM | < 50 nM | – | – | –
C=CC(=O)N1CCN(c2nc(=O)n(-c3c(C)ccnc3C(C)C)c3c4c(c(C=C)cc23)-c2c(F)cccc2CO4)[C@@H](C)C1 [Example 14, (S)-1-(4-Acryloyl-2-Methylpiperazin-1-yl)-10-Fluoro-4-(2-Isopropyl-4-Methylpyridine-3-yl)-11-Vinyl-4H-Isochromene[4,3-h] Quinazolin-3(6H)-One] | – | – | < 50 nM | < 50 nM | –
C=CC(=O)N1CCN(c2nc(=O)n(-c3c(C)ccnc3C(C)C)c3c4c(c(Cl)cc23)-c2c(F)cccc2CO4)[C@@H](C)C1 [Example 13, (S)-1-(4-Acryloyl-2-Methylpiperazin-1-yl)-11-Chloro-10-Fluoro-4-(2-Isopropyl-4-Methylpyridin-3-yl)-4H-Isochromene[4,3-h] Quinazolin-3(6H)-One] | – | – | < 50 nM | < 50 nM | –
C=CC(=O)N1CCN(c2nc(=O)n(-c3c(C)ccnc3C(C)C)c3c(F)c4c(cc23)OCc2ccccc2-4)[C@@H](C)C1 [Example 2] | – | – | 122 nM | 295 nM | –
C=CC(=O)N1CCN(c2nc(=O)n(-c3c(CC)ncnc3CC)c3c4c(c(Cl)cc23)-c2c(F)cccc2CCO4)[C@@H](C)C1 [Example 24] | < 50 nM | < 50 nM | – | – | –
C=CC(=O)N1CCN(c2nc(=O)n(-c3c(C)ccnc3C(C)C)c3c4c(c(F)cc23)-c2c(cccc2OC)CO4)[C@@H](C)C1 [Example 11, (S)-1-(Acryloyl-2-Methylpiperazin-1-yl)-l1-Fluoro-10-Methoxy-4-(2-Isopropyl-4-Methylpyridin-3-yl)-4H-Isochromene[4,3-h] Quinazolin-3(6H)-one] | 964 nM | 2040 nM | – | – | –
C=CC(=O)N1CCN(c2nc(=O)n(-c3c(C)ccnc3C(C)C)c3c4c(c(F)cc23)-c2ccccc2CO4)[C@@H](C)C1 [Example 1] | – | – | 90.2 nM | 491 nM | –
C=CC(=O)N1CCN(c2nc(=O)n(-c3c(C)ccnc3C(C)C)c3c4c(c(C)cc23)-c2c(F)cccc2CO4)[C@@H](C)C1 [Example 15, (S)-1-(4-Acryloyl-2-Methylpiperazin-1-yl)-10-Fluoro-4-(2-Isopropyl-4-Methylpyridine-3-yl)-11-Methyl-4H-Isochromene[4,3-h] Quinazolin-3(6H)-One] | – | – | < 50 nM | < 50 nM | –
C=CC(=O)N1CCN(c2nc(=O)n(-c3c(C)ccnc3C(C)C)c3nc4c(cc23)OCc2ccccc2-4)[C@@H](C)C1 [Example 36, (S)-8-(4-Acryloyl-2-Methylpiperazin-1-yl)-11-(2-Isopropyl-4-Methylpyridin-3-yl) -5H-Isochromene[3’,4′:5,6]Pyrido[2,3-d]Pyrimidin-10(11H)-One] | 442 nM | 889 nM | – | – | –
C=CC(=O)N1CCN(c2nc(=O)n(-c3c(C)ccnc3C(C)C)c3c4c(c(F)cc23)-c2c(O)cccc2CO4)[C@@H](C)C1 [Example 9, (S)(Acryloyl-2-methylpiperazinyl)-11-fluoro-10-hydroxy-4-(2-isopropyl-4-methylpyridin-3-yl) -4 H-isochromene[4,3-h] quinazolin-3(6 H)-one] | – | – | – | – | pIC50 (MIA PaCa-2 cells; Homo sapiens): < 5.00; pIC50 (H358 cells; Homo sapiens, NCI-H358, read-out: IC50 H358): < 5.00
C=CC(=O)N1CCN(c2nc(=O)n(-c3c(CC)cncc3CC)c3c4c(c(Cl)cc23)-c2c(F)cccc2CCO4)[C@@H](C)C1 [Example 31, 10-((S)-4-Actyloyl-2-Methylpiperazin-1-yl)-8-Chloro-13-(3,5-Diethylpyridin-4-yl)-7-Fluoro-2,3-Dihydrobenzo[4,5]Oxa[3,2-h]Quinazolin-12(13H)-One] | < 50 nM | < 50 nM | – | – | –
